Assay results published in PMC4129108, “The natural triterpene 3β,6β,16β-trihydroxy-lup-20(29)-ene obtained from the flowers of Combretum leprosum induces apoptosis in MCF-7 breast cancer cells” (BMC Complementary and Alternative Medicine, 2014).

Assays:
[1] = tested on: S. cerevisiae EG133 (sod1Δsod2Δ); assay: Yeast survival assay, EG133 (sod1Δsod2Δ); type: cell-based, Saccharomyces cerevisiae; settings: for survival (percentage in relation to negative control): STAT cells, 1 h in PBS 30°C
Protocol: (§1) Media, solutions and buffers were prepared according to Burke et al.. YPD medium (0.5% yeast extract, 2% peptone, 2% glucose) was used for routine growth. Synthetic medium SC (0.67% yeast nitrogen base, 0.1% ammonium sulfate, 2% glucose) supplemented with the appropriate amino acids and bases ([…]) was used for the detection of mutations.
(§2) Stationary phase (STAT) cultures were obtained by inoculation of a single colony into liquid YPD. We chose to work in the stationary phase of growth because this resembles most cells of multicellular organisms in important aspects: (i) most energy comes from mitochondrial respiration; (ii) the cells have left the active cell cycle and have entered the Go phase; and (iii) damage accumulates over time.
(§3) STAT cells (1 × 10^8 cells/mL) were exposed to TTHL (10–500 μg/mL) and incubated under growth conditions for 1 h in PBS at 30°C. Cells were then washed and treated with H2O2 (5 mM) in PBS for another hour. Suitable aliquots were plated in triplicate on solid YPD (2–3 days, 30°C) and colony-forming units were counted. Sensitivity was expressed as a percentage of survival in relation to the negative control (solvent).

[2] = tested on: S. cerevisiae EG118 (sod1Δ); assay: Yeast survival assay, EG118 (sod1Δ); type: cell-based, Saccharomyces cerevisiae; settings: for survival (percentage in relation to negative control): STAT cells, 1 h in PBS 30°C
Protocol: as §1, §2, §3

[3] = deficient in superoxide dismutase

## C=C(C)[C@@H]1CC[C@@]2(C)[C@H]1[C@H]1CC[C@@H]3[C@@]4(C)CC[C@H](O)C(C)(C)[C@@H]4[C@H](O)C[C@@]3(C)[C@]1(C)C[C@@H]2O [TTHL, 3β,6β,16β-trihydroxy-lup-20(29)-ene]
[1]; TTHL 10 μg/mL
  survival (percentage in relation to negative control): 79.35 ± 2.19 %
[1]; TTHL 50 μg/mL
  survival (percentage in relation to negative control): 67.85 ± 10.54 %
[1]; TTHL 100 μg/mL
  survival (percentage in relation to negative control): 58.15 ± 3.89 %
[1]; TTHL 500 μg/mL
  survival (percentage in relation to negative control): 41.45 ± 4.03 %
[1]; [3]
  sensitivity of the strain to TTHL (in words): hypersensitive
[2]; TTHL 10 μg/mL
  survival (percentage in relation to negative control): 92.60 ± 2.83%
[2]; TTHL 50 μg/mL
  survival (percentage in relation to negative control): 89.30 ± 0.85 %
[2]; TTHL 100 μg/mL
  survival (percentage in relation to negative control): 75.65 ± 4.60 %
[2]; TTHL 500 μg/mL
  survival (percentage in relation to negative control): 69.30 ± 3.68 %
[2]; [3]
  sensitivity of the strain to TTHL (in words): hypersensitive
